Measured values as given in paper PMC6968685 (Journal of Enzyme Inhibition and Medicinal Chemistry, 2020).
Where a name gives a salt, the structure may show the parent alone. Values belong to the compound of their own block, whether it stands above or below them.

Columns and labels:
[1] = system: P. falciparum CQ-resistant strain W2; assay: In vitro antiplasmodial activity, SYBR Green I fluorescence-based method, strain W2; format: cell-based; conditions: for IC50: Plasmodium falciparum, chloroquine-resistant strain W2, 48 h incubation, read-out: P. falciparum strains IC50 values, W2; for Selectivity index HepG2/W2: SI = CC50 HepG2 / IC50 P. falciparum W2
Protocol: (§1) The in vitro antiplasmodial activities were tested over concentrations ranging from […] against culture-adapted P. falciparum reference strains 3D7 and W2. […] The parasites were cultivated in RPMI medium (Sigma-Aldrich, Lyon, France) supplemented with 0.5% Albumax I (Life Technologies Corporation, Paisley, UK), hypoxanthine (Sigma-Aldrich), and gentamicin (Sigma-Aldrich) with human erythrocytes and were incubated at 37 °C in a candle jar, as described previously[43] .The P. falciparum drug susceptibility test was carried out in 96-well flat-bottom sterile plates in a final volume of 250 µl. After 48 h incubation period with the drugs, quantities of DNA in treated and control cultures of parasites in human erythrocytes were quantified using the SYBR Green I (Sigma-Aldrich) fluorescence-based method[44]^,[45]. Briefly, after incubation, plates were frozen at −20 °C until use. Plates were then thawed for 2 h at room temperature, and 100 µl of each homogenised culture was transferred to a well of a 96-well flat-bottom sterile black plate (Nunc, Inc., Rochester, NY) that contained 100 µl of the SYBR Green I lysis buffer (2xSYBR Green, 20 mM Tris base pH 7.5, 5 mM EDTA, 0.008% w/v saponin, 0.08% w/v Triton X-100). […] Plates were incubated for 1 h at room temperature and then read on a fluorescence plate reader (Tecan, Grödig, Austria) using excitation and emission wavelengths of 485 and 535 nm, respectively. IC50 values were calculated by non-linear regression analysis of data from dose-response curves, using TableCurve 2D version 5.0 software (Systat Software, San Jose, CA). IC50 values are reported as means calculated from three independent experiments.

[2] = system: P. falciparum CQ-sensitive strain 3D7; assay: In vitro antiplasmodial activity, SYBR Green I fluorescence-based method, strain 3D7; format: cell-based; conditions: for IC50: Plasmodium falciparum, chloroquine-sensitive strain 3D7, 48 h incubation, read-out: P. falciparum strains IC50 values, 3D7; for Selectivity index HepG2/3D7: SI = CC50 HepG2 / IC50 P. falciparum 3D7
Protocol: as §1

[3] = system: L. donovani (MHOM/IN/00/DEVI) promastigotes; assay: In vitro antileishmanial activity, MTT assay on promastigotes; format: cell-based; conditions: Leishmania donovani, 72 h incubation, ≥10 = no activity noted at the highest concentration tested
Protocol: L. donovani (MHOM/IN/00/DEVI) used in this study was provided by the CNR Leishmania (Montpellier, France). The effects of the tested compounds on the growth of L. donovani (MHOM/IN/00/DEVI) promastigotes were assessed by MTT assay. Briefly, promastigotes in log-phase in Schneider’s medium supplemented with 20% foetal calf serum (FCS), 2 mM L-glutamine and antibiotics (100 U/ml penicillin and 100 µg/ml streptomycin), were incubated at an average density of 10^6 parasites/ml in sterile 96-well plates with various concentrations of compounds dissolved in DMSO (final concentration less than 0.5% v/v), in duplicate. Appropriate controls treated with DMSO and amphotericin B (reference drug purchased from Sigma-Aldrich) were added to each set of experiments. After 72 h incubation period at 27 °C, parasite metabolic activity was determined. Each well was microscopically examined for precipitate formation. To each well was added 20 µl of 5 mg/ml MTT [3–(4,5-dimethylthiazol-2-yl)-2,5-diphenyltetrazolium bromide)] solution followed by 4 h incubation time. The enzyme reaction was stopped by addition of 100 µl of 50% isopropanol/10% sodium dodecyl sulfate. Plates were vigorously shaken (300 rpm) for 10 min, and the absorbance was measured at 570 nm in a BIO-TEK ELx808 Absorbance Microplate Reader. […] IC50 of the parasite’s growth (half maximal inhibitory concentration or IC50 values) were then calculated from the obtained experimental results using a previously described regression programme.

[4] = system: T. brucei brucei AnTat 1.9; assay: In vitro antitrypanosomal activity, Alamar Blue assay; format: cell-based; conditions: for Selectivity index HepG2/Tryp.: SI = CC50 HepG2 / IC50 Trypanosoma brucei brucei; for IC50: Trypanosoma brucei, slender bloodstream trypomastigotes, AnTat 1.9 strain, read-out: Trypanosoma brucei brucei IC50 values, Trypanos Antat 1.9
Protocol: The effects of the tested compounds on the growth of T. brucei brucei were assessed using an Alamar Blue® assay described by Räz et al.[49] T. brucei brucei AnTat 1.9 (IMTA, Antwerpen, Belgium) was cultured in MEM with Earle’s salts, supplemented according to the protocol of Baltz et al.[50] with the following modifications: 0.5 mM mercaptoethanol (Sigma Aldrich), 1.5 mM L-cysteine (Sigma Aldrich), 0.05 mM bathocuproine sulphate (Sigma Aldrich), and 20% heat-inactivated horse serum (Gibco, France) at 37 °C and 5% CO2. Samples were incubated at an average density of 2000 parasites/well in sterile 96-wells plates (Fisher, France) with various concentrations of compounds dissolved in 0.9% NaCl. All doses were tested in duplicate. Appropriate controls treated with solvents 0.9% NaCl or DMSO or with suramin, pentamidine, eflornithine, and fexinidazole (reference drugs purchased from Sigma Aldrich and Fluorochem, UK) were added to each set of experiments. After 69 h incubation period at 37 °C, 10 µl of the viability marker Alamar Blue (Fisher) was added to each well, and the plates were incubated for 5 h. The plates were read in a PerkinElmer ENSPIRE (Germany) microplate reader using an excitation wavelength of 530 nm and an emission wavelength of 590 nm. […] IC50 values were calculated using a nonlinear regression analysis of dose-response curves performed using GraphPad Prism software (La Jolla, CA). IC50 values were calculated from three independent experiments.

[5] = Cytotoxicity evaluation, MTT; format: cell-based, human; conditions: human
Protocol: These cells are a commonly used human hepatocarcinoma-derived cell line that has characteristics similar to those of primary hepatocytes. These cells express many hepatocyte-specific metabolic enzymes, thus enabling the cytotoxicity of tested product metabolites to be evaluated. […] Duplicate assays were performed for each sample. Each well was microscopically examined for precipitate formation before the medium was aspirated from the wells. After aspiration, 100 µl of MTT solution (0.5 mg/ml in medium without FCS) were then added to each well. […] The MTT solution was removed, and DMSO (100 µl) was added to dissolve the resulting blue formazan crystals. Plates were shaken vigorously (300 rpm) for 5 min. The absorbance was measured at 570 nm with 630 nm as reference wavelength in a BIO-TEK ELx808 Absorbance Microplate Reader. DMSO was used as blank and doxorubicin (Sigma Aldrich) as positive control. Cell viability was calculated as percentage of control (cells incubated without compound). The CC50 was determined from the dose-response curve using the TableCurve 2D version 5.0 software (Systat Software, San Jose, CA)

SMILES: CN(C)CCCCNCc1ccc(-c2cc(-c3ccc(CNCCCCN(C)C)cc3)c3ccccc3n2)cc1 (as salt: (cooh)2) [Compound 1a, 2,4-Bis{4-[(4-dimethylaminobutyl)aminomethyl]phenyl}quinoline]
- melting point: 258 to 260 °C

SMILES: CN1CCN(CCCNCc2ccc(-c3cc4ccccc4c(-c4ccc(CNCCCN5CCN(C)CC5)cc4)n3)cc2)CC1 [Compound 2d, 1,3-Bis{4-[(3–(4-methylpiperazin-1-yl)propyl)aminomethyl]phenyl}isoquinoline]
- IC50 [1]: 5.46 ± 0.44 µM
- Selectivity index HepG2/W2 [1]: 2.72
- IC50 [2]: 5.77 ± 0.67 µM
- Selectivity index HepG2/3D7 [2]: 2.57
- IC50 [3]: ≥ 10 µM
- Selectivity index HepG2/Tryp. [4]: 11.60
- IC50 [4]: 1.28 ± 0.122 µM
- CC50 at 72 h [5]: 14.8 ± 1.1 µM

SMILES: COc1ccc2cc(-c3ccc(CNCCCCN4CCN(C)CC4)cc3)nc(-c3ccc(CNCCCCN4CCN(C)CC4)cc3)c2c1 [Compound 2g, 7-Methoxy-1,3-bis{4-[(4–(4-methylpiperazin-1-yl)butyl)aminomethyl]phenyl}isoquinoline]
- IC50 [1]: 7.61 ± 0.94 µM
- Selectivity index HepG2/W2 [1]: 1.33
- IC50 [2]: 3.27 ± 0.31 µM
- Selectivity index HepG2/3D7 [2]: 3.11
- IC50 [3]: ≥ 10 µM
- Selectivity index HepG2/Tryp. [4]: 10.16
- IC50 [4]: 1 ± 0.261 µM
- CC50 at 72 h [5]: 10.2 ± 0.9 µM

SMILES: COc1ccc2cc(-c3ccc(CNCCCN4CCN(C)CC4)cc3)nc(-c3ccc(CNCCCN4CCN(C)CC4)cc3)c2c1 [Compound 2h, 7-Methoxy-1,3-bis{4-[(3–(4-methylpiperazin-1-yl)propyl)aminomethyl]phenyl}isoquinoline]
- IC50 [1]: 1.28 ± 0.34 µM
- Selectivity index HepG2/W2 [1]: 5.61
- IC50 [2]: 1.81 ± 0.19 µM
- Selectivity index HepG2/3D7 [2]: 3.97
- IC50 [3]: ≥ 10 µM
- Selectivity index HepG2/Tryp. [4]: 8.86
- IC50 [4]: 0.81 ± 0.255 µM
- CC50 at 72 h [5]: 7.18 ± 0.6 µM

SMILES: COc1ccc2c(-c3ccc(CNCCCCN4CCN(C)CC4)cc3)nc(-c3ccc(CNCCCCN4CCN(C)CC4)cc3)cc2c1 [Compound 2k, 6-Methoxy-1,3-bis{4-[(4–(4-methylpiperazin-1-yl)butyl)aminomethyl]phenyl}isoquinoline]
- IC50 [1]: 5.96 ± 0.54 µM
- Selectivity index HepG2/W2 [1]: 1.09
- IC50 [2]: 8.91 ± 0.87 µM
- Selectivity index HepG2/3D7 [2]: 0.73
- IC50 [3]: ≥ 10 µM
- Selectivity index HepG2/Tryp. [4]: 6.54
- IC50 [4]: 0.99 ± 0.122 µM
- CC50 at 72 h [5]: 6.48 ± 0.6 µM

SMILES: COc1ccc2c(-c3ccc(CNCCCN4CCN(C)CC4)cc3)nc(-c3ccc(CNCCCN4CCN(C)CC4)cc3)cc2c1 [Compound 2l]
- IC50 [1]: 9.6 ± 0.99 µM
- Selectivity index HepG2/W2 [1]: 0.21
- IC50 [2]: 9.66 ± 1.2 µM
- Selectivity index HepG2/3D7 [2]: 0.21
- IC50 [3]: ≥ 10 µM
- Selectivity index HepG2/Tryp. [4]: 1.50
- IC50 [4]: 1.34 ± 0.088 µM
- CC50 at 72 h [5]: 2.01 ± 0.2 µM

Further lines, with some results ahead:

- IC50 [1]: 4.84 ± 0.58 µM
- IC50 [2]: 3.12 ± 0.23 µM
- IC50 [3]: ≥ 10 µM
- IC50 [4]: 0.94 ± 0.089 µM
SMILES: COc1ccc2nc(-c3ccc(CNCCCN4CCN(C)CC4)cc3)nc(-c3ccc(CNCCCN4CCN(C)CC4)cc3)c2c1 [Compound 3k, 6-Methoxy-2,4-bis{4-[(3–(4-methylpiperazin-1-yl)propyl)aminomethyl]phenyl}quinazoline]
- Selectivity index HepG2/W2 [1]: 4.67
- Selectivity index HepG2/3D7 [2]: 7.25
- Selectivity index HepG2/Tryp. [4]: 24.06
- CC50 at 72 h [5]: 22.6 ± 1.1 µM

- IC50 [1]: 1.34 ± 0.29 µM
- IC50 [2]: 1.81 ± 0.25 µM
- IC50 [3]: ≥ 10 µM
- IC50 [4]: 0.59 ± 0.057 µM
SMILES: COc1ccc2nc(-c3ccc(CNCCN4CCN(C)CC4)cc3)nc(-c3ccc(CNCCN4CCN(C)CC4)cc3)c2c1 [Compound 3l, 6-Methoxy-2,4-bis{4-[(2–(4-methylpiperazin-1-yl)ethyl)aminomethyl]phenyl}quinazoline]
- Selectivity index HepG2/W2 [1]: 4.87
- Selectivity index HepG2/3D7 [2]: 3.61
- Selectivity index HepG2/Tryp. [4]: 11.06
- CC50 at 72 h [5]: 6.53 ± 0.6 µM

- IC50 [1]: 0.99 ± 0.09 µM
- IC50 [2]: 0.61 ± 0.03 µM
- IC50 [3]: ≥ 10 µM
- IC50 [4]: 0.75 ± 0.121 µM
SMILES: COc1ccc2c(-c3ccc(CNCCN(C)C)cc3)nc(-c3ccc(CNCCN(C)C)cc3)nc2c1 [Compound 3o, 7-Methoxy-2,4-bis{4-[(2-dimethylaminoethyl)aminomethyl]phenyl}quinazoline]
- Selectivity index HepG2/W2 [1]: 1.15
- Selectivity index HepG2/3D7 [2]: 1.87
- Selectivity index HepG2/Tryp. [4]: 1.52
- CC50 at 72 h [5]: 1.14 ± 0.4 µM

- IC50 [1]: 5.08 ± 0.48 µM
- IC50 [2]: 6.56 ± 1.44 µM
- IC50 [3]: ≥ 10 µM
- IC50 [4]: 1.02 ± 0.194 µM
SMILES: COc1ccc2c(-c3ccc(CNCCCCN4CCN(C)CC4)cc3)nc(-c3ccc(CNCCCCN4CCN(C)CC4)cc3)nc2c1 [Compound 3p, 7-Methoxy-2,4-bis{4-[(4–(4-methylpiperazin-1-yl)butyl)aminomethyl]phenyl}quinazoline]
- Selectivity index HepG2/W2 [1]: 3.41
- Selectivity index HepG2/3D7 [2]: 2.64
- Selectivity index HepG2/Tryp. [4]: 17.01
- CC50 at 72 h [5]: 17.4 ± 1.2 µM

- IC50 [1]: 11.5 ± 1.05 µM
- IC50 [2]: 10.4 ± 0.58 µM
- IC50 [3]: ≥ 10 µM
- IC50 [4]: 1.71 ± 0.145 µM
SMILES: COc1ccc2c(-c3ccc(CNCCCN4CCN(C)CC4)cc3)nc(-c3ccc(CNCCCN4CCN(C)CC4)cc3)nc2c1 [Compound 3q, 7-Methoxy-2,4-bis{4-[(3–(4-methylpiperazin-1-yl)propyl)aminomethyl]phenyl}quinazoline]
- Selectivity index HepG2/W2 [1]: 0.11
- Selectivity index HepG2/3D7 [2]: 0.12
- Selectivity index HepG2/Tryp. [4]: 0.74
- CC50 at 72 h [5]: 1.27 ± 0.5 µM

- IC50 [1]: 4.75 ± 0.31 µM
- IC50 [2]: 4.34 ± 0.33 µM
- IC50 [3]: ≥ 10 µM
- IC50 [4]: 1.07 ± 0.164 µM
SMILES: COc1ccc2c(-c3ccc(CNCCN4CCN(C)CC4)cc3)nc(-c3ccc(CNCCN4CCN(C)CC4)cc3)nc2c1 [Compound 3r, 7-Methoxy-2,4-bis{4-[(2–(4-methylpiperazin-1-yl)ethyl)aminomethyl]phenyl}quinazoline]
- Selectivity index HepG2/W2 [1]: 0.82
- Selectivity index HepG2/3D7 [2]: 0.90
- Selectivity index HepG2/Tryp. [4]: 3.64
- CC50 at 72 h [5]: 3.9 ± 0.9 µM
